Values quoted from earlier work in patent US20250302824A1, “IN SITU READY-TO-USE INJECTION FORMULATIONS OF POSACONAZOLE FREE OF CYCLODEXTRIN AND ITS DERIVATIVES” (Hefei Cosource Pharmaceuticals Co., Ltd, priority 2024, published 2025).
Converted amounts (≈) assume the structure as drawn. Read-outs that look alike come from different tables or passages of the source.

- solubility (at pH 1): 0.8 mg/mL (≈ 1140 µM)
- solubility (in neutral and alkaline solutions): less than 1 μg/ml
SMILES: CC[C@@H]([C@H](C)O)n1ncn(-c2ccc(N3CCN(c4ccc(OC[C@@H]5CO[C@@](Cn6cncn6)(c6ccc(F)cc6F)C5)cc4)CC3)cc2)c1=O [Posaconazole]
